“And” between values parts separate entries of the source, which are not always exact repeats. Equal values may be shown once. Inconclusive results and toxic doses are left out. The calls were made as follows: active = survival T/C of 150% or more; inactive = T/C below 125% in these data.
Tested on: BDF1 mice, B16 melanoma ip, median survival T/C
Assay: NCI In Vivo Anticancer Drug Screen. Data for tumor model B16 Melanoma (intraperitoneal) in B6D2F1 (BDF1) mice
Settings: endpoint: median survival time, higher = longer survival
Method in brief: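 Mice with transplantable tumors; drug vs vehicle groups; endpoint survival or tumor size; value = T/C.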

[1] = dose: 50.0 mg/kg/injection, schedule: Q01DX009 (ip), vehicle: saline with Tween-80
[2] = dose: 100.0 mg/kg/injection, schedule: Q01DX009 (ip), vehicle: saline with Tween-80
[3] = dose: 25.0 mg/kg/injection, schedule: Q01DX009 (ip), vehicle: saline with Tween-80
[4] = dose: 200.0 mg/kg/injection, schedule: Q01DX009 (ip), vehicle: saline with Tween-80
[5] = dose: 400.0 mg/kg/injection, schedule: Q01DX009 (ip), vehicle: saline with Tween-80
[6] = dose: 6.25 mg/kg/injection, schedule: Q01DX009 (ip), vehicle: saline with Tween-80
[7] = dose: 12.5 mg/kg/injection, schedule: Q01DX009 (ip), vehicle: saline with Tween-80
[8] = dose: 25.0 mg/kg/injection, schedule: Q01DX009 (ip), vehicle: Klucel (hydroxypropylcellulose) (HPC)
[9] = dose: 50.0 mg/kg/injection, schedule: Q01DX009 (ip), vehicle: Klucel (hydroxypropylcellulose) (HPC)
[10] = dose: 100.0 mg/kg/injection, schedule: Q01DX009 (ip), vehicle: Klucel (hydroxypropylcellulose) (HPC)
[11] = dose: 400.0 mg/kg/injection, schedule: Q01DX009 (ip), vehicle: Klucel (hydroxypropylcellulose) (HPC)
[12] = dose: 200.0 mg/kg/injection, schedule: Q01DX009 (ip), vehicle: Klucel (hydroxypropylcellulose) (HPC)

Measured: T/C

CO[C@H]1C[C@H](O[C@H]2CC[C@]3(C=O)[C@H]4CC[C@]5(C)[C@@H](C6=CC(=O)OC6)CC[C@]5(O)[C@@H]4CC[C@]3(O)C2)O[C@H](C)[C@H]1O[C@@H]1O[C@H](CO)[C@@H](O)[C@H](O)[C@H]1O
inactive: dose: 0.25 mg/kg/injection, schedule: Q01DX009 (ip), vehicle: saline 105 % of control | dose: 0.25 mg/kg/injection, schedule: Q04DX003 (ip), vehicle: saline 100 % of control | dose: 0.5 mg/kg/injection, schedule: Q01DX009 (ip), vehicle: saline 100 % of control | dose: 0.5 mg/kg/injection, schedule: Q04DX003 (ip), vehicle: saline 102 % of control | dose: 1.0 mg/kg/injection, schedule: Q01DX009 (ip), vehicle: saline 100 % of control | dose: 1.0 mg/kg/injection, schedule: Q04DX003 (ip), vehicle: saline 105 % of control | dose: 2.0 mg/kg/injection, schedule: Q01DX009 (ip), vehicle: saline 94 % of control

CSCCC(C#N)c1ccccc1 (configuration not stated)
inactive: [1] 88 % of control | [2] 88 % of control

Nc1ccc(S(N)(=O)=O)cc1
inactive: [3] 97 % of control and 99 % of control | [1] 94 % of control and 102 % of control | [2] 91 % of control and 100 % of control | [4] 96 % of control and 102 % of control | [5] 99 % of control and 105 % of control

O=[N+]([O-])c1ccc(/C=N/c2ncc(Br)s2)o1
inactive: [6] 95 % of control | [7] 93 % of control

COc1cc2c3cc1Oc1c(O)c(OC)cc4c1[C@H](Cc1ccc(cc1)Oc1cc(ccc1O)C[C@H]3N(C)CC2)N(C)CC4
inactive: dose: 10.0 mg/kg/injection, schedule: Q01DX009 (ip), vehicle: water 108 % of control | dose: 20.0 mg/kg/injection, schedule: Q01DX009 (ip), vehicle: water 114 % of control | dose: 40.0 mg/kg/injection, schedule: Q01DX009 (ip), vehicle: water 102 % of control and 113 % of control | [1] 118 % of control | dose: 75.0 mg/kg/injection, schedule: Q01DX009 (ip), vehicle: saline with Tween-80 112 % of control | dose: 80.0 mg/kg/injection, schedule: Q01DX009 (ip), vehicle: water 88 % of control and 114 % of control | [2] 118 % of control | dose: 150.0 mg/kg/injection, schedule: Q01DX009 (ip), vehicle: saline with Tween-80 119 % of control

CN1CCN(CCNc2ccc(CO)c3sc4ccccc4c(=O)c23)CC1
inactive: [8] 110 % of control | [9] 116 % of control

CCc1nc2cc(C)c(C)cc2[nH]1
inactive: [7] 106 % of control | [3] 104 % of control | [1] 104 % of control

CC(CN(C)C)CN1c2ccccc2CCc2ccccc21 (configuration not stated)
inactive: dose: 2.18 mg/kg/injection, schedule: Q01DX009 (ip), vehicle: saline 106 % of control | dose: 4.37 mg/kg/injection, schedule: Q01DX009 (ip), vehicle: saline 110 % of control | dose: 8.75 mg/kg/injection, schedule: Q01DX009 (ip), vehicle: saline 100 % of control | dose: 17.5 mg/kg/injection, schedule: Q01DX009 (ip), vehicle: saline 91 % of control

Nc1nc(N)n2c(N)nnc2n1
inactive: dose: 100.0 mg/kg/injection, schedule: Q01DX009 (ip), vehicle: saline 87 % of control | dose: 200.0 mg/kg/injection, schedule: Q01DX009 (ip), vehicle: saline 88 % of control

Cc1cccc(C)c1NS(=O)(=O)c1ccc(Cl)cc1
inactive: [8] 99 % of control | [9] 97 % of control | [10] 99 % of control and 104 % of control | [11] 116 % of control

Cc1cc(O)c(C)c(C)c1Cl
inactive: [3] 100 % of control | [1] 97 % of control | dose: 50.0 mg/kg/injection, schedule: Q04DX003 (ip), vehicle: saline with Tween-80 92 % of control | [2] 97 % of control | dose: 100.0 mg/kg/injection, schedule: Q04DX003 (ip), vehicle: saline with Tween-80 95 % of control

CNNC(=O)NC
inactive: dose: 1.56 mg/kg/injection, schedule: Q01DX009 (ip), vehicle: saline 87 % of control | dose: 3.12 mg/kg/injection, schedule: Q01DX009 (ip), vehicle: saline 95 % of control | dose: 12.5 mg/kg/injection, schedule: Q01DX009 (ip), vehicle: saline 100 % of control

CCCCCCCCC(O)CCCCC (configuration not stated)
inactive: [10] 100 % of control | [12] 94 % of control | [11] 98 % of control

Cc1ccc(Cl)cc1NC(=O)c1ccc([N+](=O)[O-])cc1
inactive: [3] 112 % of control | [1] 110 % of control | [2] 96 % of control

NC(=O)CCC(N)C(=O)O.[Cl-].[Cl-].[Cl-].[Cl-].[Pt+2] (configuration not stated)
inactive: dose: 1.56 mg/kg/injection, schedule: Q01DX009 (ip), vehicle: water 110 % of control | dose: 3.13 mg/kg/injection, schedule: Q01DX009 (ip), vehicle: water 110 % of control | dose: 12.5 mg/kg/injection, schedule: Q01DX009 (ip), vehicle: water 120 % of control | dose: 25.0 mg/kg/injection, schedule: Q01DX009 (ip), vehicle: water 112 % of control

Nc1nc(N)c2c(ccc3c2ccn3Cc2cccc([N+](=O)[O-])c2)n1
inactive: dose: 1.56 mg/kg/injection, schedule: Q01DX009 (ip), vehicle: saline with Tween-80 90 % of control | dose: 3.12 mg/kg/injection, schedule: Q01DX009 (ip), vehicle: saline with Tween-80 100 % of control | [6] 119 % of control

COc1ccccc1NC(=O)Nc1cc(C)cc(C)n1
inactive: [2] 94 % of control | [4] 94 % of control | [5] 89 % of control

CC(C)=CCN1CCC2(C)c3cc(O)ccc3CC1C2C (configuration not stated)
inactive: dose: 0.39 mg/kg/injection, schedule: Q01DX009 (ip), vehicle: Klucel (hydroxypropylcellulose) (HPC) 123 % of control | dose: 0.78 mg/kg/injection, schedule: Q01DX009 (ip), vehicle: Klucel (hydroxypropylcellulose) (HPC) 102 % of control | dose: 1.56 mg/kg/injection, schedule: Q01DX009 (ip), vehicle: Klucel (hydroxypropylcellulose) (HPC) 123 % of control | dose: 6.25 mg/kg/injection, schedule: Q01DX009 (ip), vehicle: Klucel (hydroxypropylcellulose) (HPC) 105 % of control

COC(=O)c1nc(-c2ccc3c(n2)C(=O)C(N)=C(OC)C3=O)c(N)c(-c2ccc(OC)c(OC)c2O)c1C
inactive: dose: 0.1 mg/kg/injection, schedule: Q01DX009 (ip), vehicle: saline with Tween-80 95 % of control | dose: 0.2 mg/kg/injection, schedule: Q01DX009 (ip), vehicle: saline with Tween-80 97 % of control | dose: 0.4 mg/kg/injection, schedule: Q01DX009 (ip), vehicle: saline with Tween-80 105 % of control | dose: 0.8 mg/kg/injection, schedule: Q01DX009 (ip), vehicle: saline with Tween-80 104 % of control

CNc1nc(NC)nc(NC)n1
inactive: dose: 12.5 mg/kg/injection, schedule: Q01DX009 (ip), vehicle: Klucel (hydroxypropylcellulose) (HPC) 106 % of control | [8] 118 % of control | [9] 100 % of control | [10] 109 % of control

CCCCOC(OCCCC)C(C)=O
inactive: [10] 96 % of control | [12] 93 % of control | [11] 93 % of control

CN(C)N=Nc1ccnc2c(I)cccc12
inactive: dose: 25.2 mg/kg/injection, schedule: Q01DX008 (ip), vehicle: DMSO 92 % of control | dose: 42.0 mg/kg/injection, schedule: Q01DX008 (ip), vehicle: DMSO 97 % of control | dose: 70.0 mg/kg/injection, schedule: Q01DX008 (ip), vehicle: DMSO 99 % of control | dose: 116.7 mg/kg/injection, schedule: Q01DX008 (ip), vehicle: DMSO 92 % of control

— PubChem BioAssay AID192 (DTP/NCI, 2004)
